Measurements: the NIST ThermoML archive (doi:10.1021/je020135f)
Where “and” joins values, the source holds several entries; their conditions need not be identical. Identical values can stand only once.

How the values were obtained:
[1] = 298.15 K; 101.33 kPa; Liquid; Vibrating tube method
[2] = excess molar enthalpy (molar enthalpy of mixing); xn = mol fraction of the nth substance listed

CC1CCCCC1 [methylcyclohexane]
Conditions | mass density
[1] | 764.96 kg/m3 and 764.97 kg/m3

CN(C)C=O [dimethylformamide]
Conditions | mass density
[1] | 943.81 kg/m3 and 943.88 kg/m3

CO [methanol]
Conditions | mass density [kg/m3]
[1] | 786.55

CC1CCCCC1 [methylcyclohexane] + CO
excess molar enthalpy [kJ/mol], [2], 101.33 kPa, Liquid
Conditions | 298.15 K | 313.15 K
x1 = 0.0166 | 0.0773 | 0.0837
x1 = 0.0343 | – | 0.159
x1 = 0.0345 | 0.149 | –
x1 = 0.0534 | – | 0.234
x1 = 0.0537 | 0.217 | –
x1 = 0.0741 | – | 0.301
x1 = 0.0743 | 0.276 | –
x1 = 0.0964 | – | 0.363
x1 = 0.0967 | 0.332 | –
x1 = 0.1206 | – | 0.422
x1 = 0.121 | 0.381 | –
x1 = 0.147 | – | 0.475
x1 = 0.1758 | – | 0.521
x1 = 0.2075 | – | 0.559
x1 = 0.2411 | – | 0.583
x1 = 0.2424 | – | 0.589
x1 = 0.7423 | – | 0.67
x1 = 0.8057 | – | 0.637
x1 = 0.8588 | – | 0.577
x1 = 0.859 | 0.422 | –
x1 = 0.9055 | – | 0.513
x1 = 0.9056 | 0.371 | –
x1 = 0.941 | – | 0.452

[2]
Conditions | excess molar enthalpy [kJ/mol]
298.15 K, Liquid mixture 1, x1 = 0.1475 | 0.417
298.15 K, Liquid mixture 1, x1 = 0.1764 | 0.431
298.15 K, Liquid mixture 1, x1 = 0.2082 | 0.435
298.15 K, Liquid mixture 1, x1 = 0.2411 | 0.438
298.15 K, Liquid mixture 1, x1 = 0.2432 | 0.438
298.15 K, Liquid mixture 1, x1 = 0.2819 | 0.441
298.15 K, Liquid mixture 1, x1 = 0.3251 | 0.443
298.15 K, Liquid mixture 1, x1 = 0.3736 | 0.445
298.15 K, Liquid mixture 1, x1 = 0.4283 | 0.45
298.15 K, Liquid mixture 1, x1 = 0.4907 | 0.452
298.15 K, Liquid mixture 1, x1 = 0.5623 | 0.453
298.15 K, Liquid mixture 1, x1 = 0.6453 | 0.457
298.15 K, Liquid mixture 1, x1 = 0.7429 | 0.463
298.15 K, Liquid mixture 1, x1 = 0.8061 | 0.456
313.15 K, Liquid mixture 1, x1 = 0.2812 | 0.606
313.15 K, Liquid mixture 1, x1 = 0.3244 | 0.616
313.15 K, Liquid mixture 1, x1 = 0.3728 | 0.629
313.15 K, Liquid mixture 1, x1 = 0.4275 | 0.643
313.15 K, Liquid mixture 1, x1 = 0.4898 | 0.656
313.15 K, Liquid mixture 1, x1 = 0.5615 | 0.668
313.15 K, Liquid mixture 1, x1 = 0.6446 | 0.686

CC1CCCCC1 [methylcyclohexane] + CN(C)C=O
excess molar enthalpy [kJ/mol], [2], 101.33 kPa, Liquid
Conditions | 298.15 K | 313.15 K
x1 = 0.031 | 0.248 | 0.242
x1 = 0.0633 | 0.434 | –
x1 = 0.0634 | – | 0.476
x1 = 0.0969 | 0.679 | –
x1 = 0.097 | – | 0.697
x1 = 0.132 | 0.875 | –
x1 = 0.1321 | – | 0.901
x1 = 0.1687 | – | 1.09
x1 = 0.2069 | – | 1.25
x1 = 0.9204 | – | 0.763
x1 = 0.924 | 0.713 | –
x1 = 0.9274 | 0.683 | –
x1 = 0.9305 | 0.666 | –
x1 = 0.9383 | 0.614 | 0.644
x1 = 0.9552 | – | 0.495

[2]
Conditions | excess molar enthalpy
298.15 K, Liquid mixture 1, x1 = 0.1685 | 0.956 kJ/mol
298.15 K, Liquid mixture 1, x1 = 0.2068 | 0.977 kJ/mol
298.15 K, Liquid mixture 1, x1 = 0.2467 | 0.976 kJ/mol
298.15 K, Liquid mixture 1, x1 = 0.2893 | 0.975 kJ/mol
298.15 K, Liquid mixture 1, x1 = 0.3322 | 0.965 kJ/mol
298.15 K, Liquid mixture 1, x1 = 0.3781 | 0.952 kJ/mol
298.15 K, Liquid mixture 1, x1 = 0.3782 | 0.945 kJ/mol
298.15 K, Liquid mixture 1, x1 = 0.4264 | 0.937 kJ/mol
298.15 K, Liquid mixture 1, x1 = 0.4771 | 0.923 kJ/mol
298.15 K, Liquid mixture 1, x1 = 0.5304 | 0.911 kJ/mol
298.15 K, Liquid mixture 1, x1 = 0.5867 | 0.899 kJ/mol
298.15 K, Liquid mixture 1, x1 = 0.646 | 0.885 kJ/mol
298.15 K, Liquid mixture 1, x1 = 0.7087 | 0.871 kJ/mol
298.15 K, Liquid mixture 1, x1 = 0.7751 | 0.852 kJ/mol
298.15 K, Liquid mixture 1, x1 = 0.8455 | 0.833 kJ/mol
298.15 K, Liquid mixture 1, x1 = 0.9204 | 0.75 kJ/mol
313.15 K, Liquid mixture 1, x1 = 0.2469 | 1.32 kJ/mol
313.15 K, Liquid mixture 1, x1 = 0.2887 | 1.34 kJ/mol and 1.32 kJ/mol
313.15 K, Liquid mixture 1, x1 = 0.3325 | 1.33 kJ/mol
313.15 K, Liquid mixture 1, x1 = 0.3784 | 1.32 kJ/mol
313.15 K, Liquid mixture 1, x1 = 0.4267 | 1.31 kJ/mol
313.15 K, Liquid mixture 1, x1 = 0.4773 | 1.31 kJ/mol
313.15 K, Liquid mixture 1, x1 = 0.5307 | 1.29 kJ/mol
313.15 K, Liquid mixture 1, x1 = 0.5869 | 1.28 kJ/mol
313.15 K, Liquid mixture 1, x1 = 0.6462 | 1.27 kJ/mol
313.15 K, Liquid mixture 1, x1 = 0.7089 | 1.26 kJ/mol
313.15 K, Liquid mixture 1, x1 = 0.7753 | 1.24 kJ/mol
313.15 K, Liquid mixture 1, x1 = 0.8457 | 1.16 kJ/mol
